Laboratory results reported in ChEMBL document CHEMBL4765474, “Discovery of a "Gatekeeper" Antagonist that Blocks Entry Pathway to Retinoid X Receptors (RXRs) without Allosteric Ligand Inhibition in Permissive RXR Heterodimers” (J Med Chem, 2021).

How the values were obtained:
[1] = target: RXR alpha/PPAR gamma (Homo sapiens, UniProt P19793); assay: Competitive antagonist activity at human PPAR-gamma/RXRA expressed in African green monkey COS7 cells assessed as reduction in bexarotene-induced receptor activation by RXRE-dependent luciferase reporter gene assay; format: cell-based; conditions: read-out: pA2 (converted)
[2] = target: T1, Retinoic acid receptor RXR-alpha (Homo sapiens, UniProt P19793); assay: Competitive antagonist activity at human RXRA/RXRA expressed in African green monkey COS7 cells assessed as reduction in bexarotene-induced receptor activation by RXRE-dependent luciferase reporter gene assay; format: cell-based; conditions: read-out: pA2 (converted)
T1 sequence (P19793 whole entry): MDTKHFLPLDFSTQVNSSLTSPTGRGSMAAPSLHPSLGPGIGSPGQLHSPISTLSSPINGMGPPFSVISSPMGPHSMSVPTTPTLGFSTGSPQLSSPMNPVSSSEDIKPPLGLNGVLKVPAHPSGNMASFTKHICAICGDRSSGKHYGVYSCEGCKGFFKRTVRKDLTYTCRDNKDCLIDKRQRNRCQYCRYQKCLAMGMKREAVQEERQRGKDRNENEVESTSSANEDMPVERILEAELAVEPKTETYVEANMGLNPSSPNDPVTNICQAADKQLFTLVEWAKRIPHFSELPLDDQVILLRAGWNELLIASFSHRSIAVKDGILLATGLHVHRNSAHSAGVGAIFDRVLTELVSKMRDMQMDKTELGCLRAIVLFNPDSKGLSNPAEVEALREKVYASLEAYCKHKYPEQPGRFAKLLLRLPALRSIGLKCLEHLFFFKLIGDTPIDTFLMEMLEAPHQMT

[3] = target: T2, Retinoic acid receptor RXR-alpha/oxysterols receptor LXR-alpha (Homo sapiens, UniProt P19793); assay: Competitive antagonist activity at human LXR-alpha/RXRA expressed in African green monkey COS7 cells assessed as reduction in bexarotene-induced receptor activation by RXRE-dependent luciferase reporter gene assay; format: cell-based; conditions: read-out: pA2 (converted)
T2 sequence (P19793 whole entry): T1 sequence (P19793 whole entry)
T2 sequence (Q13133 whole entry): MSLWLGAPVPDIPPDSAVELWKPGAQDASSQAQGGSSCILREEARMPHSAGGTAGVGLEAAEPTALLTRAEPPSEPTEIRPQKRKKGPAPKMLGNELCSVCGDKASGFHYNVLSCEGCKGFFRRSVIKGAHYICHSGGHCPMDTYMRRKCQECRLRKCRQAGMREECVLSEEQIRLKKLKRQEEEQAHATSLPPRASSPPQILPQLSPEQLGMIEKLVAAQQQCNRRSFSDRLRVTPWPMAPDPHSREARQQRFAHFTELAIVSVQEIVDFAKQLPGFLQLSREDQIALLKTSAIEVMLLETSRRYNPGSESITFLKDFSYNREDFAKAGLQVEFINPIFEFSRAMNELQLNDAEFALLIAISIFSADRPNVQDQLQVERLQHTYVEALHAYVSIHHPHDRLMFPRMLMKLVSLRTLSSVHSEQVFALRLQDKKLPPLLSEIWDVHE

[4] = target: T1, Retinoic acid receptor RXR-alpha; assay: Binding affinity to human RXR-alpha by ITC analysis
[5] = target: T1, Retinoic acid receptor RXR-alpha; assay: Displacement of [3H]-9-cis retinoic acid from recombinant human RXR-alpha LBD by liquid scintillation counting based competitive ligand binding assay
[6] = target: T1, Retinoic acid receptor RXR-alpha; assay: Binding affinity to human RXR-alpha LBD incubated for 2 hrs by tryptophan fluorescence quenching assay

Chain of RXR alpha/PPAR gamma (P37231 whole entry, one chain of several): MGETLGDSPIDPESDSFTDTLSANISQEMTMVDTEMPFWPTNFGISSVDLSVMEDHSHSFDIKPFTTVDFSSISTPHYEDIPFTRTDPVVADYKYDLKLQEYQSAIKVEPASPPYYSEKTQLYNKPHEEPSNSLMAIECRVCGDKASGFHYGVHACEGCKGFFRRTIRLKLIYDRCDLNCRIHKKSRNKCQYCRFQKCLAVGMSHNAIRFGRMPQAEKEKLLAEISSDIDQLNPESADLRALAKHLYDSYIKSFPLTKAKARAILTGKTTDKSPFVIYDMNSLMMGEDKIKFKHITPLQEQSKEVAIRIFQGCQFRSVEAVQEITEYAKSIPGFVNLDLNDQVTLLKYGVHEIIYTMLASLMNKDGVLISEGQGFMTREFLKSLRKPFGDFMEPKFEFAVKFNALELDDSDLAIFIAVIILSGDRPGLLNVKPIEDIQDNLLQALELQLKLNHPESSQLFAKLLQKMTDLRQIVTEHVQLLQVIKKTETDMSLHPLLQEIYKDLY

Kb [1]: 10 nM | Kb [2]: 63.1 nM | Kb [3]: 302 nM | Kd [4]: 1350 nM | Ki [5]: 1340 nM | Kd [6]: 260 nM
SMILES: CCCCCCOc1cc2c(cc1N(C)c1ncc(C(=O)O)cn1)C(C)(C)CCC2(C)C
